In patent publication US20220096561A1, “INHIBITING OR ALLEVIATING AGENT FOR INFLAMMATION IN THE BRAIN” (NIPPON ZOKI PHARMACEUTICAL CO., LTD., priority 2019, published 2022):

Legend:
Format in all cases: cell-based, murine
[1] = test system: BV-2 cell; assay: p-p65 and p-IκB-α expression in LPS-stimulated cells; conditions: LPS + NTP + ANA-12, FIG. 6F-H
Description: (§1) Immortal BV-2 murine microglial cells, a gift from Dr. Ying Chen of Sun Yat-sen Memorial Hospital, Sun Yat-sen University were cultured as described (refer Non-Patent Document 2). BV-2 cultures were treated with 0.1 NU/mL NTP, then given lipopolysaccharides (1000 ng/mL, LotL2880, O55:B5, Sigma-Aldrich, St. Louis, Mo., USA) 12 h later.
Western blotting and semi-quantitative analyses were performed following previously described procedures (refer Liao W, Jiang M J, Li M, Jin C L, Xiao S H, Fan S N, Fang W L, Zheng Y Q and Liu J. Magnesium Elevation Promotes Neuronal Differentiation While Suppressing Glial Differentiation of Primary Cultured Adult Mouse Neural Progenitor Cells through ERK/CREB Activation. Frontiers in Neuroscience 2017; 11:). In brief, proteins in cerebral cortex and hippocampus were extracted with lysis buffer for 30 min, followed by centrifugation at 14,000 rpm for 15 min at […] to obtain the supernatant for western blot analysis. Primary antibodies and dilution rates used were listed as follow: NF-κB (p65), 1:1000; p-IκBα, 1:500 and β-actin, 1:1000. Primary antibodies against NF-κB (p65), p-IκBα and β-actin were purchased from Cell Signaling Technology Inc (MA, USA). […] The quantification of protein expression was analyzed by Image J (National Institutes of Health, Md., USA).

[2] = test system: BV-2 cell; assay: BDNF level in LPS-treated BV-2 cells; conditions: LPS + NTP + ANA12, FIG. 6E
Description: as §1

[3] = test system: BV-2 cell; assay: IL-1β, IL-6, TNF-α expression in LPS-treated BV-2 cells; conditions: LPS + NTP, pre-treated with 10 uM ANA12 1 h before NTP, FIG. 6A-C
Description: as §1

O=C(Nc1ccccc1C(=O)NC1CCCCNC1=O)c1cc2ccccc2s1 (stereo not drawn) [ANA12]
activation of p-IκB-α [1]: abolished by ANA-12
activation of p-P65 [1]: abolished by ANA-12
effect of NTP on BDNF [2]: abolished by ANA12
expression of IL-1β [3]: increased after ANA12 administration
expression of IL-6 [3]: increased after ANA12 administration
expression of TNF-α [3]: increased after ANA12 administration
